According to patent US12472177B2, “Bicyclic compounds and methods for their use in treating Pitt Hopkins syndrome” (NEUREN PHARMACEUTICALS LIMITED, priority 2019, dated 2025):

Tests used:
Tcf4^+/− mice [1] = assay: Fear conditioning (time freezing); format: in vivo, mouse; design: key to Fear Conditioning: Tukey’s Multiple Comparisons Test Summary: **** = p < 0.00001; ns = not significant
Method: (§1) In vivo behavioral studies were conducted in Tcf4^+/− mutant and wildtype littermate control (WT) mice by Gen.DDI (Santiago, Chile). Littermate controls consist of the genotypes Tcf4^+/+. All Tcf4 mutant mice used were heterozygous for the Tcf4 mutation because homozygous mutations of Tcf4 result in embryonic to postnatal day 1 lethality. Ten mice per treatment group, 14 weeks of age, were used for behavioral experiments. Experiments were conducted in line with the requirements of the UK Animals (Scientific Procedures) Act, 1986. The mice were housed in plastic cages (35×30×12 cm), 5 in each and habituated to the animal facilities for at least a week before commencing the test. The room temperature (21° C.±2° C.), relative humidity (55%±5%), a 12-hour light-dark cycle (lights on 7 AM to 7 PM), and air exchange were automatically controlled. The animals had free access to commercial food pellets and water. Testing was performed during the light phase of the circadian cycle, with the order of testing being determined by the principle of conducting the most stressful tests last. Assays were designed to reproduce and expand on the original behavioral characterization of Tcf4^+/− mice. Tcf4^+/− and WT control mice were treated for 6 weeks prior to testing and tested 30 minutes following a dose of cG-2-AllylP, as described in Table 2 below.
Fear conditioning to either an event or a context represents a form of associative learning that has been well studied in many species. In mice, fear is often shown as stopping movement, also known as freezing behavior. Freezing is adaptive for prey species because predators often locate moving prey. The dependent measure used in contextual (delay) fear conditioning is a freezing response that takes place following pairing of an unconditioned stimulus (foot shock), with a conditioned stimulus (CS; e.g., an audible tone), a particular context and/or such a cue. If in a conditioning context one administers a foot shock that is paired with a tone, there will be learning not only to the tone, but also to the context.
Contextual fear conditioning is a basic conditioning procedure. It involves taking an animal and placing it in a novel environment, providing an aversive stimulus, and then removing it. […] Freezing is a response to fear, which has been defined as “absence of movement except for respiration.” This freezing behavior may last from seconds to minutes depending on the strength of the aversive stimulus, the number of presentations, and the degree of learning achieved by the subject.
Animals with the Tcf4^+/− mutation show less freezing behavior than wild type mice. This maladaptive behavior can have serious consequences. Therefore, to determine if NNZ-2591 (cG-2-AllylP) can restore normal fear conditioning in Tcf4^+/− mice, we carried out a series of studies.
The percent of time spent in freezing over a 5-minute test period is shown on the vertical axis of FIG. 4. Animals and their treatments are shown on the horizontal axis.

Tcf4^+/− mice [2] = assay: Nest building (test of daily living); format: in vivo, mouse
Method: as §1
Nest building is an activity needed for mice to raise their offspring and is an indicator of social adaptation and activities of daily living. Tcf4^+/− mice build nests of substantially lower quality than wild type mice. Therefore, to determine if NNZ-2591 (cG-2-AllylP) might restore the quality of nest building, we carried out a series of studies.

[3] = Tcf4^+/− + cG-2-AllylP (100 mg/kg) vs Tcf4^+/− + cG-2-AllylP (200 mg/kg)
[4] = Tcf4^+/− + cG-2-AllylP (100 mg/kg) vs WT + cG-2-AllylP (200 mg/kg)
[5] = Tcf4^+/− + vehicle vs Tcf4^+/− + cG-2-AllylP (100 mg/kg)
[6] = Tcf4^+/− + vehicle vs Tcf4^+/− + cG-2-AllylP (200 mg/kg)
[7] = Tcf4^+/− + vehicle vs WT + cG-2-AllylP (100 mg/kg)
[8] = Tcf4^+/− + vehicle vs WT + cG-2-AllylP (200 mg/kg)
[9] = WT + cG-2-AllylP (100 mg/kg) vs Tcf4^+/− + cG-2-AllylP (100 mg/kg)
[10] = WT + cG-2-AllylP (100 mg/kg) vs Tcf4^+/− + cG-2-AllylP (200 mg/kg)
[11] = WT + cG-2-AllylP (100 mg/kg) vs WT + cG-2-AllylP (200 mg/kg)
[12] = WT + cG-2-AllylP (200 mg/kg) vs Tcf4^+/− + cG-2-AllylP (200 mg/kg)
[13] = WT + vehicle vs Tcf4^+/− + cG-2-AllylP (100 mg/kg)
[14] = WT + vehicle vs Tcf4^+/− + cG-2-AllylP (200 mg/kg)
[15] = WT + vehicle vs WT + cG-2-AllylP (100 mg/kg)
[16] = WT + vehicle vs WT + cG-2-AllylP (200 mg/kg)
[17] = WT mice, 100 mg/kg oral BID 6 weeks
[18] = WT mice, 200 mg/kg oral BID 6 weeks

`C=CC[C@]12CCCN1C(=O)CNC2=O` [cG-2-AllylP, (8aS)-Allyl-hexahydropyrrolo[1,2-a]pyrazine-1,4-dione] was tested, and the “Fear Conditioning: Tukey’s Multiple Comparisons Test Summary” value (“Fear Conditioning” below) (Tcf4^+/− mice [1]; [3]) was “*** (*** = p < 0.001)”, the “Fear Conditioning” value (Tcf4^+/− mice [1]; [4]) was “**** (**** = p < 0.0001)” and the “Fear Conditioning” value (Tcf4^+/− mice [1]; [5]) was “**** (**** = p < 0.0001)”. For the same compound, the “Fear Conditioning” value (Tcf4^+/− mice [1]; [6]) was “**** (**** = p < 0.0001)”, the “Fear Conditioning” value (Tcf4^+/− mice [1]; [7]) was “**** (**** = p < 0.0001)” and the “Fear Conditioning” value (Tcf4^+/− mice [1]; [8]) was “**** (**** = p < 0.0001)”. The “Time spent in freezing behavior over a 5-minute test period” value (Tcf4^+/− mice [1]; Tcf4^+/− mice, 100 mg/kg oral BID 6 weeks, 100 mg/kg) was “improved but remained significantly different to Wild Type”, the “Behavior Normalized to WildType Levels: Fear Con” value (Tcf4^+/− mice [1]; Tcf4^+/− mice, 200 mg/kg) was “✓” and the “Fear Conditioning” value (Tcf4^+/− mice [1]; [9]) was “ns”. The “Fear Conditioning” value (Tcf4^+/− mice [1]; [10]) was “nx”, the “Fear Conditioning” value (Tcf4^+/− mice [1]; [11]) was “ns” and the “Fear Conditioning” value (Tcf4^+/− mice [1]; [12]) was “ns”. For the same compound, the “Fear Conditioning” value (Tcf4^+/− mice [1]; [13]) was “* (* = p < 0.05)”, the “Fear Conditioning” value (Tcf4^+/− mice [1]; [14]) was “ns” and the “Fear Conditioning” value (Tcf4^+/− mice [1]; [15]) was “ns”. The “Fear Conditioning” value (Tcf4^+/− mice [1]; [16]) was “ns”, the “Time spent in freezing behavior over a 5-minute test period” value (Tcf4^+/− mice [1]; [17]) was “about the same amount of time in freezing behavior as did vehicle-treated WT mice” and the “Time spent in freezing behavior over a 5-minute test period” value (Tcf4^+/− mice [1]; [18]) was “about the same amount of time in freezing behavior as did vehicle-treated WT mice”. For the same compound, the “Test of Daily Living: Tukey’s Multiple Comparison Test Summary” value (shortened to “Test of Daily Living”) (Tcf4^+/− mice [2]; [3]) was “ns”, the “Test of Daily Living” value (Tcf4^+/− mice [2]; [4]) was “ns” and the “Test of Daily Living” value (Tcf4^+/− mice [2]; [5]) was “**** (**** = p < 0.0001)”. The “Test of Daily Living” value (Tcf4^+/− mice [2]; [6]) was “**** (**** = p < 0.0001)”, the “Test of Daily Living” value (Tcf4^+/− mice [2]; [7]) was “**** (**** = p < 0.0001)” and the “Test of Daily Living” value (Tcf4^+/− mice [2]; [8]) was “**** (**** = p < 0.0001)”. The “Behavior Normalized to WildType Levels: Nesting” value (Tcf4^+/− mice [2]; Tcf4^+/− mice, 100 mg/kg) was “✓”, the “Nest building quality (grade of 1-5)” value (Tcf4^+/− mice [2]; Tcf4^+/− mice, 100 mg/kg oral BID 6 weeks) was “normalized the quality of nests to levels nearly identical to WT mice” and the “Behavior Normalized to WildType Levels: Nesting” value (Tcf4^+/− mice [2]; Tcf4^+/− mice, 200 mg/kg) was “✓”. For the same compound, the “Nest building quality (grade of 1-5)” value (Tcf4^+/− mice [2]; Tcf4^+/− mice, 200 mg/kg oral BID 6 weeks) was “normalized the quality of nests to levels nearly identical to WT mice”, the “Test of Daily Living” value (Tcf4^+/− mice [2]; [9]) was “ns” and the “Test of Daily Living” value (Tcf4^+/− mice [2]; [10]) was “ns”. For the same compound, the “Test of Daily Living” value (Tcf4^+/− mice [2]; [11]) was “ns”, the “Test of Daily Living” value (Tcf4^+/− mice [2]; [12]) was “ns” and the “Test of Daily Living” value (Tcf4^+/− mice [2]; [13]) was “ns”. For the same compound, the “Test of Daily Living” value (Tcf4^+/− mice [2]; [14]) was “ns”, the “Test of Daily Living” value (Tcf4^+/− mice [2]; [15]) was “ns” and the “Test of Daily Living” value (Tcf4^+/− mice [2]; [16]) was “ns”. The “Nest building quality (grade of 1-5)” value (Tcf4^+/− mice [2]; [17]) was “nearly identical to those of vehicle-treated WT mice” and the “Nest building quality (grade of 1-5)” value (Tcf4^+/− mice [2]; [18]) was “nearly identical to those of vehicle-treated WT mice”.
